The values that follow come from US20090048174A1, “Methods for inhibiting angiogenesis and tumor growth by inhibition of beta or delta protein kinase C” (priority 2006, published 2009).

One assay addresses T1, εPKC (Homo sapiens, UniProt Q02156).
T1 construct: endogenous in cells; host or cells: PC3 human prostate cancer xenograft grown in nude mice
T1 sequence (Q02156 1-737): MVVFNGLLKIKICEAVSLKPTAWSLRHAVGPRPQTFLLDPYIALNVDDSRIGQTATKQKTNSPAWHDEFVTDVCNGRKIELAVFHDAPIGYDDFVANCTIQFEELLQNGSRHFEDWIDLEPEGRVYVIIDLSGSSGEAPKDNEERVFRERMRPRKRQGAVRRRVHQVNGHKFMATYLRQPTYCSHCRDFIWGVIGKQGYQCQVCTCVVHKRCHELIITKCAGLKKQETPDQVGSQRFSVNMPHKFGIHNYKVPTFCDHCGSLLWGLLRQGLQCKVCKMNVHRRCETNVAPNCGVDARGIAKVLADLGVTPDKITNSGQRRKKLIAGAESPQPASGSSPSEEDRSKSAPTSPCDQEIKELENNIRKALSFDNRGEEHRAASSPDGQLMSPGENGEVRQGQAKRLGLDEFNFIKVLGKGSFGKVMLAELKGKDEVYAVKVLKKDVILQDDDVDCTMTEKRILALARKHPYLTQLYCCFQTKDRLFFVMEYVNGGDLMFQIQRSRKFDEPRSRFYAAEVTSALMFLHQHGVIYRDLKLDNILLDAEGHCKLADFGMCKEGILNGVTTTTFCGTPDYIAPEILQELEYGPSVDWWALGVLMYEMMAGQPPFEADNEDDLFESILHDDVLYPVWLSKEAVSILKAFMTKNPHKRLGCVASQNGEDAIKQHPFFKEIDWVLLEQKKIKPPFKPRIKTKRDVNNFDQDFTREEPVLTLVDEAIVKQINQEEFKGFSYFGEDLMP
The assay can be described thus: Immunoblot of particulate vs total εPKC in tumor cells from treated mice. In kind it is in vivo. As to conditions: tumor cells from treated animals; vs control (FIG. 19E). How it is done:
(§1) Male nude mice were subcutaneously injected with human prostate cancer cells (PC3) at six weeks of age. […]
(§2) Tumor volumes were measured periodically (e.g., weekly). […] Angiogenesis and tumor cell proliferation were measured at six weeks by deuterium analyses using gas chromatography-mass spectrometry (GC-MS). Ribose derivatives extracted from DNA that incorporated deuterium during cell division can be identified by GC-MS and can be quantitated over total ribose from all DNA. This measurement allows the calculation of “newly synthesized DNA” during the deuterated water administration (i.e., pulse), from which the fractional turnover rate can be calculated using an exponential equation. Levels of tumor cell markers, angiogenesis-related polypeptides, and apoptosis-related proteins were evaluated by Western blot and immunohistochemistry. […]
On the technique in general: In western blotting, separated proteins are transferred to a membrane and probed.

In assay [1] the test system is human prostate cancer cells (PC3). As to the kind of experiment: PC3 prostate tumor xenograft growth in nude mice, osmotic pump delivery. In kind it is in vivo. An excerpt:
Male nude mice were subcutaneously injected with human prostate cancer cells (PC3) at six weeks of age. After one week, the animals were implanted with an ALZEJ® (Alza Corporation, Mountain View, Calif.) osmotic pump for delivery of a control saline solution, a control peptide of TAT (residues 47-57, Y[…] ID NO:85), or an inhibitor or activator of PKC (e.g., δV1-1 attached to TAT (YGRKKRRQRRR-CC-SFNSYELGSL; SEQ ID NO: 143), δV1-7 attached to TAT (YGRKKRRQRRR-CC-MRAAEDPM; SEQ ID NO: 144), or βIIV5-3 attached to TAT (YGRKKRRQRRR-CC-QEVIRN; SEQ ID NO: 145). The rate of administration was 0.5 μl/hr, unless otherwise noted. Typical inhibitor or activator concentrations were 3-30 mM. In some cases, a lower concentration was administered initially (e.g., 3 mM) followed by a higher concentration (e.g., 30 mM) in the later weeks of treatment.
(§3) Tumor volumes were measured periodically (e.g., weekly). The mice were typically sacrificed after 5 weeks of treatment. Deuterated water was given to the animals about one week prior to sacrifice to facilitate the measurement of cell proliferation. Angiogenesis and tumor cell proliferation were measured at six weeks by deuterium analyses using gas chromatography-mass spectrometry (GC-MS). Ribose derivatives extracted from DNA that incorporated deuterium during cell division can be identified by GC-MS and can be quantitated over total ribose from all DNA. This measurement allows the calculation of “newly synthesized DNA” during the deuterated water administration (i.e., pulse), from which the fractional turnover rate can be calculated using an exponential equation. Levels of tumor cell markers, angiogenesis-related polypeptides, and apoptosis-related proteins were evaluated by Western blot and immunohistochemistry.

Another assay concerns tumor cells (TC). The assay can be described thus: Tumor cell proliferation, deuterium GC-MS fractional turnover. In kind it is in vivo, mice. How it is done:
as §3

The test system of assay [2] is vascular endothelial growth factor (VEGF). As to the kind of experiment: VEGF concentration in prostate cancer tumor cells (ELISA). It is filed as in vivo, mice. To be noted: three weeks of continuous treatment; vs saline. For orientation: In an ELISA, binding on a coated surface is turned into a signal by an enzyme label.
For the next assay, the system named is Ki67. The assay can be described thus: Ki67 staining of tumor tissue. In kind it is in vivo, mice. To be noted: vs saline. How it is done: Tumor tissue obtained from animals treated with a control saline solution or the δPKC activator peptide were stained with an antibody specific for Ki67 to detect proliferating cells in all phases of the cell cycle (i.e., G1, S-, G2-, and M-phase), but not in resting cells (G0-phase).
as §3

In assay [3] the test system is tumor cells (mixed cell populations). As to the kind of experiment: Apoptosis histology of tumor samples (TUNEL, Hoechst, cleaved caspase 3). In kind it is in vivo, mice. From the text: (§4) Tumor cells (mixed cell populations) obtained from control and βIIPKC peptide inhibitor βIIV5-3-treated animals following 5-weeks of treatment were subjected to histological analysis to determine the effect of the βIIPKC peptide inhibitor on apoptosis (data not shown). CD31 is a tumor endothelial marker used to identify […] in a sample. CD31 (PECAM-1) has been implicated in angiogenesis, apoptosis, cell migration, modulation of integrin-mediated cell adhesion, transendothelial migration, negative regulation of immune cell signaling, autoimmunity, macrophage phagocytosis, IgE-mediated anaphylaxis, and thrombosis. […]
(§5) Tumor volumes were measured periodically (e.g., weekly). […] Angiogenesis and tumor cell proliferation were measured at six weeks by deuterium analyses using gas chromatography-mass spectrometry (GC-MS). Ribose derivatives extracted from DNA that incorporated deuterium during cell division can be identified by GC-MS and can be quantitated over total ribose from all DNA. This measurement allows the calculation of “newly synthesized DNA” during the deuterated water administration (i.e., pulse), from which the fractional turnover rate can be calculated using an exponential equation. Levels of tumor cell markers, angiogenesis-related polypeptides, and apoptosis-related proteins were evaluated by Western blot and immunohistochemistry.

The next assay deals with HIF-1a. As to the kind of experiment: Immunoblot of HIF-1a in tumor cell homogenate, normalized for GAPDH. It is filed as in vivo, mice. To be noted: tumor cells, 5 weeks of treatment; vs saline, p<0.05 (FIG. 24E). From the text:
FIGS. 24A-24D show the results of immunoblot analysis total cell homogenate obtained from tumor cells from saline control (FIGS. 24 A and 24C) and δPKC activator (FIGS. 24 B and 24D) treated animals (5 weeks). The blots were probed with an antibody specific for hypoxia-inducible factors (HIF-1a, FIGS. 24A and 24B) or an antibody specific for GAPDH as a control (FIGS. 24C and 24D). FIG. 24E is a graph showing the relative levels of HIF-1a (normalized for GADPH) from FIGS. 24A-24D.
Tumor volumes were measured periodically (e.g., weekly). The mice were typically sacrificed after 5 weeks of treatment. […] Angiogenesis and tumor cell proliferation were measured at six weeks by deuterium analyses using gas chromatography-mass spectrometry (GC-MS). Ribose derivatives extracted from DNA that incorporated deuterium during cell division can be identified by GC-MS and can be quantitated over total ribose from all DNA. This measurement allows the calculation of “newly synthesized DNA” during the deuterated water administration (i.e., pulse), from which the fractional turnover rate can be calculated using an exponential equation. Levels of tumor cell markers, angiogenesis-related polypeptides, and apoptosis-related proteins were evaluated by Western blot and immunohistochemistry. […]

Another assay relates to CD31. The assay can be described thus: CD31 staining of tumor samples (tumor vessels). In kind it is in vivo, mice. To be noted: 5 weeks of treatment; vs control animals.
From the text: as §4, §5

The next assay concerns the target T2, δPKC (Homo sapiens, UniProt Q05655).
T2 construct: endogenous in cells; host or cells: PC3 human prostate cancer xenograft grown in nude mice
The assay can be described thus: Immunoblot of particulate vs total δPKC in tumor cells from treated mice. To be noted: treated for 5 weeks, vs control (FIG. 18E). In kind it is in vivo. The protocol: as §1, §2

The test system of assay [4] is tumor endothelial cells (TEC). As to the kind of experiment: Tumor endothelial cell proliferation, deuterium GC-MS fractional turnover. It is filed as in vivo, mice. As to conditions: three weeks of continuous treatment; vs saline. The protocol: Tumor volumes were measured periodically (e.g., weekly). […] Deuterated water was given to the animals about one week prior to sacrifice to facilitate the measurement of cell proliferation. Angiogenesis and tumor cell proliferation were measured at six weeks by deuterium analyses using gas chromatography-mass spectrometry (GC-MS). Ribose derivatives extracted from DNA that incorporated deuterium during cell division can be identified by GC-MS and can be quantitated over total ribose from all DNA. This measurement allows the calculation of “newly synthesized DNA” during the deuterated water administration (i.e., pulse), from which the fractional turnover rate can be calculated using an exponential equation. Levels of tumor cell markers, angiogenesis-related polypeptides, and apoptosis-related proteins were evaluated by Western blot and immunohistochemistry.

Bridge positions count the residues as written; N and C are the ends. Ends that are not written are not given here.

T2 sequence (Q05655 whole entry): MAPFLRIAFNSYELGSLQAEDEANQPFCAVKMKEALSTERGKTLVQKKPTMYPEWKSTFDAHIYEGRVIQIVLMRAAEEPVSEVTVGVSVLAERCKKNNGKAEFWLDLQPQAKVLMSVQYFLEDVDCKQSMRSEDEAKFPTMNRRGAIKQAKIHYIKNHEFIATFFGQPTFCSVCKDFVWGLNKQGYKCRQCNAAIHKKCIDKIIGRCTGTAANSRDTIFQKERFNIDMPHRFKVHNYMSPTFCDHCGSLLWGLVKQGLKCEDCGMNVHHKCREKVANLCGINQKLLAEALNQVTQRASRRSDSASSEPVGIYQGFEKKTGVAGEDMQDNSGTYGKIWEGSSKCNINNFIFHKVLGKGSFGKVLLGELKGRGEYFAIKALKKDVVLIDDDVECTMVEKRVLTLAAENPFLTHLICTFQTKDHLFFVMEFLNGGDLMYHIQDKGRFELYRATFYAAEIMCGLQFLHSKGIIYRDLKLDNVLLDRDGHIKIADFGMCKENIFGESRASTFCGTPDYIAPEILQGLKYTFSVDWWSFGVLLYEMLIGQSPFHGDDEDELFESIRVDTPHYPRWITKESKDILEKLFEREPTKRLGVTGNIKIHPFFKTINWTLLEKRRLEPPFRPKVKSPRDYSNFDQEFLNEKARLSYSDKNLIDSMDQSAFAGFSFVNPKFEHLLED

Consider “δV1-7: activator of δPKC, amino acid sequence MRAAEDPM (SEQ ID NO: 146), attached to TAT (YGRKKRRQRRR-CC-MRAAEDPM; SEQ ID NO: 144) (YGRKKRRQRRRCCMRAAEDPM; disulfide 12-13 (inferred))”, for which, in the assay with εPKC, the “levels of particulate εPKC compared to total εPKC” value is on record as “do not substantially change”. In addition, the tumor mass result in assay [1] (3 weeks of treatment, vs saline (FIG. 25C)) is recorded as “decreased”. Besides, the tumor volume result in assay [1] (continuous treatment, vs saline and Tat control groups, p=0.004 (FIG. 20)) was “significantly increased tumor volume”; in assay [1] (three weeks of treatment, peptide conjugated to TAT, vs TAT control (FIG. 17)), “increase in tumor volume”. Moreover, the “rate of tumor cell proliferation” value with tumor cells (TC) (5 weeks of treatment (end-stage), vs saline (FIG. 22)) is on record as “substantial increase”. Also, the “rate of tumor cell (TC) proliferation, fractional turnover per day” value with tumor cells (TC) (three weeks of continuous treatment, vs saline) is “appeared to decrease”. Besides, in [2], the “concentration of VEGF in prostate cancer tumor cells” value was “not increased”. Also, the “Ki67 staining (proliferating cells)” value in the assay on Ki67 is on record as “increased Ki67 staining”. Moreover, the “percentage of cells stained by TUNEL labeling” value in assay [3] (mixed tumor cell population, 5 weeks of treatment, vs saline (FIG. 26)) is “increased TUNEL labeling only slightly”. Further, in assay [3] (vs saline control animals (FIG. 27A-27C)), the “tumor volume as a function of the percent of TUNEL-positive cells” value is “larger tumor volumes for a given percent of TUNEL-positive cells”. The “levels of HIF-1a normalized for GAPDH” value in the assay with HIF-1a is reported as “several-fold increase”. The “CD31 staining (tumor vascularization)” value in the assay on CD31 is “several-fold increase”. For the same substance, the “levels of particulate δPKC compared to total δPKC” value with δPKC is “approximately doubled”. Further, the “rate of tumor endothelial cell (TEC) proliferation, fractional turnover per day” value in assay [4] is on record as “similar”.
